Experimental data published in patent US6838436B1, “Inhibitors of proteasomal activity for stimulating bone growth” (Osteoscreen Inc., priority 1998, dated 2005).
Where a SMILES comes first, the peptide text is derived from it. The star is where a group is joined. Cbz = O=C(OCc1ccccc1)*; OtBu = CC(C)(C)O*

Tests used:
papain = target: T1, papain (Carica papaya, UniProt P00784); conditions: cited from earlier work
T1 sequence (P00784 134-345): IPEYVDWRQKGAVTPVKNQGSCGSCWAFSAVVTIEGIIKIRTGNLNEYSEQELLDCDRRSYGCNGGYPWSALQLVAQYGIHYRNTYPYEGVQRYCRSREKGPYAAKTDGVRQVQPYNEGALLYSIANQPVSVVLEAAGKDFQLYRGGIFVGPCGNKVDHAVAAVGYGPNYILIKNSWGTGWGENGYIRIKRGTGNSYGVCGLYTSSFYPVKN

chymotrypsin = chymotrypsin (Bos taurus, UniProt P00766); conditions: cited from earlier work
hair follicles [1] = experiment: Stimulation of hair growth after wax hair stripping, subcutaneous injection (Example 9); type: in vivo, Male Swiss ICR mice
Description: Male Swiss ICR mice were first treated to remove hair from the scalp and dorsal regions as follows. Paraffin wax was liquefied by heating to 55° C. and the liquefied wax then applied by brush to the scalp and/or back (under anesthesia). The wax was allowed to solidify and then removed. The day following hair stripping, PSI (1 mg/kg/day) was injected subcutaneously three times a day for five days into the scalp and dorsal region. […] The mice were sacrificed on day 21 and histology was performed on the dermis of the scalp and of the dorsal region. […] Upon closer examination, it was observed that mice that had received only vehicle had quiescent hair follicles.

hair follicles [2] = experiment: Hair growth without depilation, shaved dorsal trunks (Example 15); type: in vivo, C57 BL/6 mice; conditions: for growth of new hair at the site of drug application: sixteenth day
Description: To confirm that the responses described above occurred in the absence of depilation and in other strains of mice, PS1 (0.5%) was applied topically once daily for 5 days to eight week old male C57 BL/6 mice in which the dorsal trunks were shaved but not depilated. For this experiment, the hair of 18 C57 BL/6 mice was carefully clipped the hair from the dorsal trunks. Three groups were tested. One group was treated with PS1 (0.5%) applied topically to the shaved area daily. In the second group, PS1 (1 mg/kg body weight/day) was injected locally into the subcutaneous tissue of the shaved area. These two groups were compared with the third group, which was untreated other than the hair on the dorsal trunk was similarly clipped. Blonde hair dye (extra strength bleach powder and 12% hydrogen peroxide in a 1 to 1 w/v ratio) was applied to the dorsal trunks of all mice on the seventh day in order to make it easier to detect new hair growth represented by appearance in the blonded areas of the natural black hair of the mice associated with induction of melanogenesis.

In the case of CC[C@H](C)[C@H](NC(=O)[C@H]([C@@H](C)CC)N(C)C(C)=O)C(=O)N[C@H](C(=O)N[C@@H](CC(C)C)C(=O)[C@@]1(C)CO1)[C@@H](C)O [Epoxomicin], the “concentration up to which no inhibition appears” value (papain) is listed as > 50 µM and the “concentration up to which no inhibition appears” value (chymotrypsin) is listed as > 50 µM.
In the case of CC[C@H](C)[C@H](NC(=O)OCc1ccccc1)C(=O)N[C@@H](CCC(=O)OC(C)(C)C)C(=O)N[C@@H](C)C(=O)N[C@H](C=O)CC(C)C [PSI, N-carbobenzoyl-Ile-Glu-(OtBu)-Ala-Leu-CHO] (Cbz-IE(OtBu)AL-aldehyde), the “number of hair follicles versus control mice” value (hair follicles [1]; 1 mg/kg/day subcutaneously three times a day for five days, day 7 dermal punch biopsy) is reported as “large increase in the number of hair follicles”, the hair growth rate (hair follicles [1]; 1 mg/kg/day subcutaneously, by day 18) is reported as “hair growth rate greater than that of the mice in the control group” and the “mature hair follicles in the lower region of the dermis” value (hair follicles [1]; 1 mg/kg/day subcutaneously, day 21 histology) is reported as “mature hair follicles in numbers much greater than in controls”. For the same compound, the “growth of new hair at the site of drug application” value (hair follicles [2]; 1 mg/kg body weight/day injected locally into the subcutaneous tissue) was “more rapid growth of new hair”, the “growth of new hair at the site of drug application” value (hair follicles [2]; 0.5% applied topically once daily for 5 days) was “more rapid growth of new hair” and the “diameter of the hair and of the inner and outer root sheath” value (hair follicles [2]; transverse sections of skin, only in the applied areas) was “increased both the diameter of the hair and the diameter of the inner and outer root sheath”.
